Measurements from US12318365B2, “Inhibition of dipeptide repeat proteins” (ALS Therapy Development Institute, priority 2019, dated 2025).
Entries after “also recorded” stand apart in the source; their conditions may differ. Where two headings read alike, the source gives them in different places. No end group written: not given here.

Tests used:
NSC-34 cells [1] = assay: LDH assay (cytotoxicity) in NSC-34 cells; assay type: cell-based; conditions: for DRP-induced toxicity: incubated 24 hours; for toxicity: DRP concentrations as low as 300 nM
Source text: LDH Assay: The LDH assay is a colorimetric assay that measures cell toxicity and death. […] When cells lose membrane integrity, an enzyme found in living cells called lactate dehydrogenase (LDH) is released into the solution surrounding the dying cell. A form of programmed cell death, apoptosis, as well as other forms of cell death also ultimately lead to a cell's membrane being destroyed, resulting in a large release of LDH into the extracellular space. Thus, LDH is an excellent marker not only for necrosis, but for all instances of cell death. In an LDH assay, a sample of the solution surrounding the cell is isolated, and transferred to a plate containing an LDH reaction mixture. This reaction mixture contains a tetrazolium salt intermediate and other reaction constituents that, when exposed to LDH, convert the tetrazolium salt into a colored Formazan product. This Formazan product can be quantified spectrophotometrically. Greater absorbance readings correspond to more cell death.
One row on the top and bottom of the plate, and two columns on either side of the plate, were left without cells and contained culture medium only to minimize experimental well volume evaporation. After plating, cells were incubated for 24 h at 37° C., 5% CO2 prior to DRP and/or PRMT inhibitor addition. At time of DRP/PRMT inhibitor addition, desired doses of DRP for challenge and inhibitor for treatment were achieved by diluting aliquots of each stock in warm culture medium. During experiments where both PRMT inhibitors and DRPs were used, PRMT inhibitors were always applied to wells first, and followed by DRP application. […] Inhibitor toxicity controls were included as wells treated with the desired doses of drug for the experiment, but no DRP. DRP toxicity controls were included as wells only treated with the doses of DRP used for challenge. Once dosed, plates were incubated for 24 h at 37° C., 5% CO2 prior to running the WST-1 or LDH assay endpoints. Additional controls needed for each endpoint are specified in the “WST-1 Assay” and “LDH Assay” sections of these methods.
LDH Assay: Cells were plated and prepared using the steps described in the “Plating NSC-34 and Dosing with DRPs and PRMT Inhibitors” section of these methods. Other controls for this experiment included several sets of wells with only cells in culture medium (one triplicate designated for “untreated,” one triplicate designated for “lysed” positive control), and wells with culture medium only. An additional control added only to the transfer plate at time of testing was 5 μL LDH only. Testing was performed using colorimetric LDH-Cytotoxicity Assay Kit II (Abcam, Cambridge, MA, USA) per manufacturer's instructions. Final read at 450 nm was performed on a SpectraMax M3 Microplate Reader (Molecular Devices, San Jose, CA, USA). Data analysis included calculation of % LDH release using the following equation: […]
Experiments included three replicates per condition. Each experiment was repeated twice (executed three times total).
(§1) The following conditions were plated in triplicate.
Plates were incubated for 24 h at 37° C., 5% CO2. Cells were tested and data were analyzed by LDH assay.
(§2) Cells were plated in culture medium in 2 96-well plates at a density of 3.7×10^4 cells per well, and incubated overnight at 37° C., 5% CO2.
as §1
Cells were plated in culture medium in 2 96-well plates at a density of 3.7×10^4 cells per well, and incubated overnight at 37° C., 5% CO2. […]
The following conditions were plated in triplicate. […]

NSC-34 cells [2] = assay: BrdU ELISA (proliferation) in NSC-34 cells; assay type: cell-based, Mouse; conditions: for abrogation of GR-induced proliferation inhibition: 300 nM GR15, 24 h; for effect of DRP on proliferation activity: compared to DMSO-treated controls
Experimental: BrdU ELISA: The BrdU ELISA is an ELISA detecting cell proliferation activity. BrdU is a pyrimidine analog that, when inside the cell, can be incorporated instead of thymidine into newly synthesized strands of DNA. Just as is indicated by thymidine incorporation into DNA, BrdU incorporation into cell DNA indicates DNA synthesis activity, which is required for cell proliferation. In the BrdU ELISA, cells are treated with test compounds as well as BrdU reagent, and then incubated for 24 hours before testing. During testing, an anti-BrdU antibody detects the incorporation of BrdU into cell DNA that occurred over the 24-hour period, as a surrogate for cell proliferation activity. This anti-BrdU antibody is then labelled with a secondary antibody tagged with a colored substrate, which can be quantified spectrophotometrically. Greater absorbance readings correspond to more cell proliferation activity.
as §2, §1
Plates were incubated for 24 h at 37° C., 5% CO2. Cells were tested and data were analyzed using the procedure detailed in BrdU ELISA kit instructions.
Cells were plated in culture medium in 2 96-well plates at a density of 5×10^4 cells per well, and incubated overnight at 37° C., 5% CO2. […] 10 μL of each concentration would be added to 100 μL base media in plate to achieve final concentrations of 3, 1, 0.3, 0.1, 0.03, and 0.01 μM DRP.
The following conditions were plated in triplicate. Samples were surrounded by border wells on the outside of the plate filled with sterile Phosphate-buffered saline to prevent evaporation of volume in experimental wells during incubation; • Culture medium only • Background (Cells only in culture medium, without BrdU reagent) • Untreated (Cells only in culture medium, with BrdU reagent) • DMSO Controls (Cells treated with BrdU reagent and the amount of DMSO that DRP-treated cells were exposed to at each concentration) • i. The DMSO controls tested were as follows, corresponding to DRP doses starting at the highest (3 μM to the lowest 0.01 μM), and were diluted in culture medium: • 1. 0.03% DMSO • 2. 0.01% DMSO • 3. 0.003% DMSO • 4. 0.001% DMSO • 5. 0.0003% DMSO • 6.

In the case of `CC(C)Oc1ccc(-c2c[nH]cc2CN(C)CCN)cc1` [MS023], the “effect on GR15-induced cytotoxicity” value (NSC-34 cells [1]; 300 nM GR15, 24 h, MS023 60 and 30 μM) is reported as “significantly amplified cytotoxicity”, the “abrogation of PR-induced cytotoxicity” value (NSC-34 cells [1]; 300 nM PR15, 24 h, all doses applied (1-60 μM)) is reported as “at least partially abrogated” and the “abrogation of ADMe-GR15-induced cytotoxicity” value (NSC-34 cells [1]; 3 μM ADMe-GR15, 24 h, MS023 0.1-10 μM) is reported as “did not abrogate”. For the same compound, the “abrogation of GR-induced toxicity” value (NSC-34 cells [1]; 3 μM GR15, 24 h, all tested doses (1-60 μM)) was “partially abrogated”, the “dose dependence of abrogation of GR15-induced cytotoxicity” value (NSC-34 cells [1]; 3 μM GR15, 24 h, dose range of the example) was “potently, and dose-dependently abrogated; also recorded: consistently dose-dependently abrogated” and the “abrogation of GR-induced toxicity” value (NSC-34 cells [1]; 3 μM GR15, 24 h, doses 0.01, 0.03, 0.1 and 0.3 μM) was “partially abrogated”. The “abrogation of GR-induced toxicity” value (NSC-34 cells [1]; 3 μM GR15, 24 h, doses 0.3, 1 and 3 μM) was “completely abrogated”, the “abrogation of GR15-induced cytotoxicity” value (NSC-34 cells [1]; 3 μM GR15, 24 h, doses 1 and 3 μM) was “completely abrogated” and the “relative potency against GR- vs PR-induced toxicity” value (NSC-34 cells [1]; 3 μM GR15 or PR15, 24 h, MS023 0.01-3 μM) was “more potently abrogated PR-induced toxicity”. The “dose dependence of abrogation of PR15-induced cytotoxicity” value (NSC-34 cells [1]; 3 μM PR15, 24 h, dose range of the example) was “potently, and dose-dependently abrogated”, the “abrogation of PR-induced toxicity” value (NSC-34 cells [1]; 3 μM PR15, 24 h, doses 0.01, 0.03 and 0.1 μM) was “partially abrogated” and the “abrogation of PR-induced toxicity” value (NSC-34 cells [1]; 3 μM PR15, 24 h, doses 0.03, 0.1, 0.3, 1 and 3 μM) was “completely abrogated”. The “abrogation of PR-induced cytotoxicity” value (NSC-34 cells [1]; 3 μM PR15, 24 h, doses 1 and 3 μM) was “fully abrogated; also recorded: completely abrogated”, the “abrogation of PR-induced cytotoxicity” value (NSC-34 cells [1]; 3 μM PR15, 24 h, doses 10, 30 and 60 μM) was “partially abrogated” and the “cytotoxicity of inhibitor alone” value (NSC-34 cells [1]; no DRP, highest dose 60 μM) was “did produce significant cytotoxicity”. The “abrogation of GR-induced proliferation inhibition” value (NSC-34 cells [2]; all doses (1-60 μM)) was “partially abrogated”, the “abrogation of GR-induced proliferation inhibition” value (NSC-34 cells [2]; dose 3 μM) was “fully rescuing” and the excessive proliferation (NSC-34 cells [2]; 300 nM GR15 or PR15, 24 h, all doses tested (1-60 μM)) was “without inducing excessive proliferation”. For the same compound, the “abrogation of PR-induced proliferation inhibition” value (NSC-34 cells [2]; 300 nM PR15, 24 h, all doses (1-60 μM)) was “fully abrogated”.

In the case of GRGRGRGRGRGRGRGRGRGRGRGRGRGRGR [GR15], the “cytotoxicity induced by DRP challenge” value (NSC-34 cells [1]; DRP 10 nM-3 μM, 24 h) is reported as “induced dose-dependent cytotoxicity”, the EC50 (NSC-34 cells [1]; DRP 0.01-3 μM, 24 h, read-out: EC50 of DRP-induced toxicity) is reported as 50 ± 26 nM and the DRP-induced toxicity (NSC-34 cells [1]; DRP 0.01-3 μM) is reported as “produced significant, dose-dependent toxicity”. The toxicity (NSC-34 cells [1]; 24 h) was “approximately 10%” and the “effect of DRP on proliferation activity” value (NSC-34 cells [2]; DRP 0.01-3 μM, 24 h) was “significantly suppressed proliferative activity in a dose-dependent manner”.

For PRPRPRPRPRPRPRPRPRPRPRPRPRPRPR [PR15], the EC50 (NSC-34 cells [1]; 24 h) was 56 ± 20 nM, the DRP-induced toxicity (NSC-34 cells [1]; DRP 0.01-3 μM) was “produced significant, dose-dependent toxicity” and the toxicity (NSC-34 cells [1]; 24 h) was “approximately 10%”. For the same compound, the “rank among DRPs as inhibitor of proliferative activity” value (NSC-34 cells [2]; DRP 0.01-3 μM, 24 h) was “the strongest inhibitor” and the “effect of DRP on proliferation activity” value (NSC-34 cells [2]; DRP 0.01-3 μM, 24 h) was “significantly suppressed proliferative activity in a dose-dependent manner”.
